Assay results taken from patent US4552882A, “7-(1-Pyrrolyl) derivatives of 1-ethyl-1,4-dihydro-4-oxoquinoline-3-carboxylic acids and 1-ethyl-1,4-dihydro-4-oxo-1,8-naphthyridine-3-carboxylic acids and their use as antimicrobial agents” (Provesan, SA, priority 1983, dated 1985).
≈ marks a conversion by molar mass, not a printed value.

Key:
Test in all cases: MIC in vitro
Type in all cases: cell-based
[1] = tested on: Enterobacter aerogenes ATCC 15038; conditions: Klebsiella aerogenes, ATCC15038, Dextrose agar, 37° C., 20 hours
Source text: (§1) (G. L. Daquet and Y. A. Chabbect, Techniques en bacteriologie (Bacteriological techniques), vol. 3, Flammarion Medecine Sciences, Paris, 1972 and W. B. Hugo and A. D. Rusell, Pharmaceutical Microbiology, Blackwell Scientific Publications, London, (1977)). Antibiotic medium no. 1 (seed agar) (Oxoid CM 327) Tryptone-soya broth (Oxoid CM 129) Ringer's physiological solution 1/4 (oxoid BR 52) Dextrose agar (BBL-11165) 0.1 N NaOH "Enterobacter aerogenes" ATCC 15038 Each of the microorganisms is seeded by streaking in tubes of Antibiotic medium No. 1 (seed agar), which are then incubated at 37° C. for 20 hours. Using a culture loop, the cultures are then seeded in tryptone-soyabroth and incubated at 37° C. for 20 hours. The culture obtained is diluted to 1/4 with Ringer's physiological solution, so as to obtain a standardized suspension of 10^7 -10^9 cfu/ml for each organism. Starting from a solution of 1,000 μg/ml in 0.1 N NaOH, each product is diluted in Dextrose agar (previously melted and maintained at 50° C.), with successive dilutions so as to obtain the following concentrations: 64--32--16--8--4--2--1--0.5--0.25--0.125 μg of derivative/ml medium. For each product, the solution of each concentration is subsequently distributed into Petri dishes 10 cm in diameter, with 10 ml of medium per dish and the same number of dishes as microorganisms to be tested. As soon as the medium has cooled, the dishes are seeded with the inoculations using 0.4 ml of inoculation per dish. They are spread with a Driglasky loop and the supernatant is removed. The seeded dishes are incubated at 37° C. for 20 hours.

[2] = tested on: Bacillus subtilis ATCC 6633; conditions: ATCC6633, Dextrose agar, 37° C., 20 hours
Experimental: as §1, with “"Bacillus subtilis"” for “"Enterobacter aerogenes"”, “6633” for “15038”

[3] = tested on: Streptococcus faecalis ATCC 10541; conditions: Enterococcus faecalis, ATCC10541, Dextrose agar, 37° C., 20 hours
Source text: as §1, with “"Streptococcus faecalis"” for “"Enterobacter aerogenes"”, “10541” for “15038”

| SMILES | MIC [1] [µg/mL] | MIC [2] [µg/mL] | MIC [3] [µg/mL] |
| --- | --- | --- | --- |
| CCn1cc(C(=O)O)c(=O)c2ccc(-n3cccc3)cc21 [Example 1, 7-(1-pyrrolyl)-1-ethyl-1,4-dihydro-4-oxo-3-quinolinecarboxylic acid] | > 64 | < 0.125 | 16 (≈ 56.7 µM) |
| CCn1cc(C(=O)O)c(=O)c2cc(F)c(-n3cccc3)cc21 [Example 2, 6-fluoro-7-(1-pyrrolyl)-1-ethyl-1,4-dihydro-4-oxo-3-quinolinecarboxylic acid] | 8 (≈ 26.6 µM) | < 0.125 | 1 (≈ 3.33 µM) |
| CCn1cc(C(=O)O)c(=O)c2ccc(-n3cccc3)nc21 [Example 3, 1-ethyl-1,4-dihydro-4-oxo-7-(1-pyrrolyl)-1,8-naphthyridine-3-carboxylic acid] | > 64 | 0.25 (≈ 0.882 µM) | 32 (≈ 113 µM) |
| CCn1cc(C(=O)O)c(=O)c2cc(F)c(-n3cccc3)nc21 [Example 4, 1-ethyl-1,4-dihydro-4-oxo-6-fluoro-7-(1-pyrrolyl)-1,8-naphthyridine-3-carboxylic acid] | 4 (≈ 13.3 µM) | 0.03 (≈ 0.0996 µM) | 8 (≈ 26.6 µM) |
| CCn1cc(C(=O)O)c(=O)c2cnc(N3CCNCC3)nc21 [Pipemidic acid, reference compound] | 32 (≈ 105 µM) | 8 (≈ 26.4 µM) | > 64 |
